Assay results published in PMC8412899 (ACS Omega, 2021).

Tests used:
MCL-1 [1] = biological target: T1, MCL-1 (Homo sapiens, UniProt Q07820); assay: FP; format: binding; conditions: for inhibition at 50 µM: read-out: FP MCL-1 inhibition at 50 μM, @50 μM, highest tested dose; for Ki: FP MCL-1 Ki
NCI-H929 cells = assay: MTT cell viability assay of NCI H929 cell line; format: cell-based; conditions: compared to 13
MCL-1 [2] = biological target: T1, MCL-1; assay: QA; format: binding; conditions: QA MCL-1 Ki

T1 sequence (Q07820 whole entry): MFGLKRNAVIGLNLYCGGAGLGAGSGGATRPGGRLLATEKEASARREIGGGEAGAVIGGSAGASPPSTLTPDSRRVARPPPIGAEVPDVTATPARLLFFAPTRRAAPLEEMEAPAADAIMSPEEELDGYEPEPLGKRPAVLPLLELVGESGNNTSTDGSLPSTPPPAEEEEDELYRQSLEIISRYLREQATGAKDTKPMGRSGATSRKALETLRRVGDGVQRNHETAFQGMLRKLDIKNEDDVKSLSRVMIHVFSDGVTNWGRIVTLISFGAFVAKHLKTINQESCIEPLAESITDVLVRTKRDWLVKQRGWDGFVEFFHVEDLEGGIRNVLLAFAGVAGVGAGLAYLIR

| Ki (MCL-1 [1]) [nM] | SMILES | other results |
| --- | --- | --- |
| – | CCc1c(-c2cccc(Cl)c2C)c2c(N[C@H](Cc3ccccc3)C(=O)O)ncnc2n1C (single isomer, unassigned) [Compound 2a, N-[(5Ra)-5-(3-Chloro-2-methylphenyl)-6-ethyl-7-methyl-7H-pyrrolo[2,3-d]pyrimidin-4-yl]-D-phenylalanine] | inhibition at 50 µM (MCL-1 [1]): 65% |
| 18000 | C=CCn1c(CC)c(-c2cccc(Cl)c2C)c2c(N[C@H](Cc3ccccc3)C(=O)O)ncnc21 (single isomer, unassigned) [Compound 3a, N-[(5Ra)-5-(3-Chloro-2-methylphenyl)-6-ethyl-7-(prop-2-en-1-yl)-7H-pyrrolo[2,3-d]pyrimidin-4-yl]-D-phenylalanine] | fold less potent (FP affinity) (MCL-1 [1]; less active form compared to more active isomer 3b): 2 fold |
| 9100 | C=CCn1c(CC)c(-c2cccc(Cl)c2C)c2c(N[C@H](Cc3ccccc3)C(=O)O)ncnc21 (single isomer, unassigned) [Compound 3b, N-[(5Sa)-5-(3-Chloro-2-methylphenyl)-6-ethyl-7-(prop-2-en-1-yl)-7H-pyrrolo[2,3-d]pyrimidin-4-yl]-D-phenylalanine] | – |
| 2500 | C=CCn1c(Br)c(-c2cccc(Cl)c2C)c2c(N[C@H](Cc3ccccc3)C(=O)O)ncnc21 (single isomer, unassigned) [Compound 4a, N-[6-Bromo-(5Sa)-5-(3-chloro-2-methylphenyl)-7-(prop-2-en-1-yl)-7H-pyrrolo[2,3-d]pyrimidin-4-yl]-D-phenylalanine] | – |
| – | C=CCn1c(Br)c(-c2cccc(Cl)c2C)c2c(N[C@H](Cc3ccccc3)C(=O)O)ncnc21 (single isomer, unassigned) [Compound 4b, N-[6-Bromo-(5Ra)-5-(3-chloro-2-methylphenyl)-7-(prop-2-en-1-yl)-7H-pyrrolo[2,3-d]pyrimidin-4-yl]-D-phenylalanine] | inhibition at 50 µM (MCL-1 [1]): 66% |
| – | CCc1c(-c2cccc(Cl)c2C)c2c(N[C@H](Cc3ccccc3)C(=O)O)ncnc2n1CC(F)(F)F (single isomer, unassigned) [Compound 5a, N-[(5Ra)-5-(3-Chloro-2-methylphenyl)-6-ethyl-7-(2,2,2-trifluoroethyl)-7H-pyrrolo[2,3-d]pyrimidin-4-yl]-D-phenylalanine] | inhibition at 50 µM (MCL-1 [1]): 63% |
| 8500 | CCc1c(-c2cccc(Cl)c2C)c2c(N[C@H](Cc3ccccc3)C(=O)O)ncnc2n1CC(F)(F)F (single isomer, unassigned) [Compound 5b, N-[(5Sa)-5-(3-Chloro-2-methylphenyl)-6-ethyl-7-(2,2,2-trifluoroethyl)-7H-pyrrolo[2,3-d]pyrimidin-4-yl]-D-phenylalanine] | – |
| 5900 | CC#CCn1c(CC)c(-c2cccc(Cl)c2C)c2c(N[C@H](Cc3ccccc3)C(=O)O)ncnc21 (single isomer, unassigned) [Compound 7a, N-[7-(But-2-yn-1-yl)-(5Ra)-5-(3-chloro-2-methylphenyl)-6-ethyl-7H-pyrrolo[2,3-d]pyrimidin-4-yl]-D-phenylalanine] | – |
| 330 | CC#CCn1c(CC)c(-c2cccc(Cl)c2C)c2c(N[C@H](Cc3ccccc3)C(=O)O)ncnc21 (single isomer, unassigned) [Compound 7b, N-[7-(But-2-yn-1-yl)-(5Sa)-5-(3-chloro-2-methylphenyl)-6-ethyl-7H-pyrrolo[2,3-d]pyrimidin-4-yl]-D-phenylalanine] | – |
| 6500 | CCc1c(-c2cccc(Cl)c2C)c2c(N[C@H](Cc3ccccc3)C(=O)O)ncnc2n1Cc1ccccc1 (single isomer, unassigned) [Compound 8a, N-[7-Benzyl-(5Ra)-5-(3-chloro-2-methylphenyl)-6-ethyl-7H-pyrrolo[2,3-d]pyrimidin-4-yl]-D-phenylalanine] | – |
| 530 | CCc1c(-c2cccc(Cl)c2C)c2c(N[C@H](Cc3ccccc3)C(=O)O)ncnc2n1Cc1ccccc1 (single isomer, unassigned) [Compound 8b, N-[7-Benzyl-(5Sa)-5-(3-chloro-2-methylphenyl)-6-ethyl-7H-pyrrolo[2,3-d]pyrimidin-4-yl]-D-phenylalanine] | – |
| 3500 | CCc1c(-c2cccc(Cl)c2C)c2c(N[C@H](Cc3ccccc3)C(=O)O)ncnc2n1CCC1CCCC1 (single isomer, unassigned) [Compound 9a, N-[(5Ra)-5-(3-Chloro-2-methylphenyl)-7-(2-cyclopentylethyl)-6-ethyl-7H-pyrrolo[2,3-d]pyrimidin-4-yl]-D-phenylalanine] | – |
| 790 | CCc1c(-c2cccc(Cl)c2C)c2c(N[C@H](Cc3ccccc3)C(=O)O)ncnc2n1CCC1CCCC1 (single isomer, unassigned) [Compound 9b, N-[(5Sa)-5-(3-Chloro-2-methylphenyl)-7-(2-cyclopentylethyl)-6-ethyl-7H-pyrrolo[2,3-d]pyrimidin-4-yl]-D-phenylalanine] | FP MCL-1 Ki (MCL-1 [1]): submicromolar |
| 3500 | CCc1c(-c2cccc(Cl)c2C)c2c(N[C@H](Cc3ccccc3)C(=O)O)ncnc2n1Cc1cccc2ccccc12 (single isomer, unassigned) [Compound 10a, N-[(5Ra)-5-(3-Chloro-2-methylphenyl)-6-ethyl-7-(naphthalen-1-ylmethyl)-7H-pyrrolo[2,3-d]pyrimidin-4-yl]-D-Phenylalanine] | – |
| 260 | CCc1c(-c2cccc(Cl)c2C)c2c(N[C@H](Cc3ccccc3)C(=O)O)ncnc2n1Cc1cccc2ccccc12 (single isomer, unassigned) [Compound 10b, N-[(5Sa)-5-(3-Chloro-2-methylphenyl)-6-ethyl-7-(naphthalen-1-ylmethyl)-7H-pyrrolo[2,3-d]pyrimidin-4-yl]-D-phenylalanine] | – |
| 11000 | Cc1c(Cl)cccc1-c1c2n(c3ncnc(N[C@H](Cc4ccccc4)C(=O)O)c13)CCCC2 (single isomer, unassigned) [Compound 12a, N-[(5Ra)-5-(3-Chloro-2-methylphenyl)-6,7,8,9-tetrahydropyrimido[5,4-b]indolizin-4-yl]-D-phenylalanine] | – |
| 5900 | Cc1c(Cl)cccc1-c1c2n(c3ncnc(N[C@H](Cc4ccccc4)C(=O)O)c13)CCCC2 (single isomer, unassigned) [Compound 12b, N-[(5Sa)-5-(3-Chloro-2-methylphenyl)-6,7,8,9-tetrahydropyrimido[5,4-b]indolizin-4-yl]-D-phenylalanine] | – |
| – | CCc1c(-c2cccc(Cl)c2C)c2c(N[C@H](Cc3ccccc3)C(=O)O)ncnc2n1C(C)C [Compound 6a, N-[(5Ra)-5-(3-Chloro-2-methylphenyl)-6-ethyl-7-(propan-2-yl)-7H-pyrrolo[2,3-d]pyrimidin-4-yl]-D-phenylalanine] | inhibition at 50 µM (MCL-1 [1]): 67% |
| – | CCc1c(-c2cccc(Cl)c2C)c2c(N[C@H](Cc3ccccc3)C(=O)O)ncnc2n1C(C)C [Compound 6b, N-[(5Sa)-5-(3-Chloro-2-methylphenyl)-6-ethyl-7-(propan-2-yl)-7H-pyrrolo[2,3-d]pyrimidin-4-yl]-D-phenylalanine] | FP MCL-1 inhibition at 50 μM (MCL-1 [1]; @50 μM, highest tested dose): 78%@50 μM |
| 14 | COc1ccccc1C[C@@H](Oc1ncnc2sc(-c3ccc(F)cc3)c(-c3ccc(OCCN4CCN(C)CC4)c(Cl)c3C)c12)C(=O)O [Compound 13, (2R)-2-{[(5Sa)-5-{3-Chloro-2-methyl-4-[2-(4-methylpiperazin-1-yl)ethoxy]phenyl}-6-(4-fluorophenyl)thieno[2,3-d]pyrimidin-4-yl]oxy}-3-(2-methoxyphenyl)propanoic Acid] | – |
| 820 | COc1ccccc1C[C@@H](Oc1cccc2oc(-c3ccc(F)cc3)c(-c3ccc(OCCN4CCN(C)CC4)c(Cl)c3C)c12)C(=O)O [Compound 14, (2R)-2-{[(3Sa)-3-{3-Chloro-2-methyl-4-[2-(4-methylpiperazin-1-yl)ethoxy]phenyl}-2-(4-fluorophenyl)-1-benzofuran-4-yl]oxy}-3-(2-methoxyphenyl)propanoic Acid] | loss of cellular activity (NCI-H929 cells): more than 10 fold |
| 47 | COc1ccccc1C[C@@H](Oc1cccc2cc(-c3ccc(F)cc3)n(-c3ccc(OCCN4CCN(C)CC4)c(Cl)c3C)c12)C(=O)O [Compound 15, (2R)-2-{[(1Ra)-1-{3-Chloro-2-methyl-4-[2-(4-methylpiperazin-1-yl)ethoxy]phenyl}-2-(4-fluorophenyl)-1H-indol-7-yl]oxy}-3-(2-methoxyphenyl)propanoic Acid] | loss of cellular activity (NCI-H929 cells): more than 10 fold |
| – | COc1ccccc1-c1nccc(COc2ccccc2C[C@@H](Nc2ncnc3sc(-c4ccc(F)cc4)c(-c4ccc(OCCN5CCN(C)CC5)c(Cl)c4C)c23)C(=O)O)n1 [Compound 16b, N-[(5Sa)-5-{3-Chloro-2-methyl-4-[2-(4-methylpiperazin-1-yl)ethoxy]phenyl}-6-(4-fluorophenyl)thieno[2,3-d]pyrimidin-4-yl]-2-{[2-(2-methoxyphenyl)pyrimidin-4-yl]methoxy}-D-phenylalanine] | Ki (MCL-1 [2]): 0.303 nM |
| – | COc1ccccc1-c1nccc(COc2ccccc2C[C@@H](Nc2ccnc3sc(-c4ccc(F)cc4)c(-c4ccc(OCCN5CCN(C)CC5)c(Cl)c4C)c23)C(=O)O)n1 [Compound 18, N-[3-{3-Chloro-2-methyl-4-[2-(4-methylpiperazin-1-yl)ethoxy]phenyl}-2-(4-fluorophenyl)thieno[2,3-b]pyridin-4-yl]-2-{[2-(2-methoxyphenyl)pyrimidin-4-yl]methoxy}-D-phenylalanine] | Ki (MCL-1 [2]): 0.1 nM |
| – | COc1ccccc1-c1nccc(COc2ccccc2C[C@@H](Oc2cccc3oc(-c4ccc(F)cc4)c(-c4ccc(OCCN5CCN(C)CC5)c(Cl)c4C)c23)C(=O)O)n1 [Compound 21, (2R)-2-{[(3Sa)-3-{3-Chloro-2-methyl-4-[2-(4-methylpiperazin-1-yl)ethoxy]phenyl}-2-(4-fluorophenyl)-1-benzofuran-4-yl]oxy}-3-(2-{[2-(2-methoxyphenyl)pyrimidin-4-yl]methoxy}phenyl)propanoic Acid] | Ki (MCL-1 [2]): 1.3 nM |
